In patent US20250276982A1, “KRAS INHIBITORS” (ASCENTAGE PHARMA (SUZHOU) CO., LTD., priority 2021, published 2025) one finds IC50 data, which are given here for 14 compounds.

Each structure is given as a SMILES string.

What all share (type): cell-based
Test [1] deals with p-ERK in AGS cells. Put plainly: p-ERK assay in AGS cells (fixed cells, anti-p-ERK / β-Actin antibodies, IR imaging). The note with it: Homo sapiens, 3 h at 37° C., p-ERK detected by antibody with β-Actin, IR fluorescence. The method, then: The expression of p-ERK was detected in this assay. At first, the AGS cells (40000 cells/well) were seeded in 96-well plate culture overnight and treated with KRAS-G12D compounds inhibitors at concentrations of 1, 0.33, 0.11, 0.03, 0.01, 0.004, 0.001, 0.0004, 0.0001 μM for 3 h at 37° C. Then, add an equal volume (100 μL) of 8% paraformaldehyde solution to fix and crosslink the cells to the microplate for 15 minutes. Add 100 μL of 1× permeabilization solution to wells for 30 min and add 100 μL of 1× blocking solution for 2 h. Wash with PBS 3 times after each reaction. At last, Incubation with primary antibody (Anti-mouse β-Actin and Anti-rabbit p-ERK) and secondary antibody (Goat anti-Mouse IgG H&L IRDye 800CW and Goat anti-Rabbit IgG H&L IRDye 680RW) for 2 h, As appropriate, image the microplate with an IR scanner or develop the HRP labeled microplate and read it with a spectrophotometer. The fluorescence signal was monitored using a microplate reader (Azure biosystems, Sapphire biomolecular imager) using excitation and emission wavelengths of 680 and 800 nm, respectively. Export data. The inhibitor dose-reponse curves were analyzed using normalized IC50 regression curve fitting with control based normalization.

In test [2] the test system is phosphorylation of ERK1/2 in AGS cells with KRAS-G12D mutation. Put plainly: Detection of phosphorylation of ERK1/2 in AGS cells (AlphaLISA SureFire Ultra p-ERK 1/2 (Thr202/Tyr204) assay). The note with it: Homo sapiens, 3 hours, AlphaLISA p-ERK 1/2 (Thr202/Tyr204). The method, then: Example 33: Detection of Phosphorylation of ERK1/2 in AGS Cells
The inhibitory effect of test compounds on phosphorylation of ERK1/2 were determined using the AlphaLISA® SureFire® Ultra™ p-ERK 1/2 (Thr202/Tyr204) assay following the manufacturer's instructions (ALSU-PERK-A500, PerkinElmer Inc.).
AGS cells (ATCC CRL-1739) with KRAS-G12D mutation were cultured in DMEM medium supplemented with 10% fetal bovine serum, 10 U/ml penicillin and 10 μg/ml streptomycin. Cells were plated in 96-well plates at a density of 4000 cells/well. After 16-18 hours incubation, various concentrations of compounds were added to cells with a final concentration of 0.2% DMSO. After 3 hours, the medium was removed, and the cells were lysed in 50 uL lysis buffer. 10 uL of lysate was transferred to a half area 96-well plate, 5 ul of acceptor mix was added to wells and incubated at room temperature for 1 hour, then 5 ul of donor mix was added to wells. After 1 hour incubation at room temperature, the plate was read on an Alpha Technology-compatible plate reader, using standard AlphaLISA settings. The assays were carried out in duplicates.
A general note: Alpha assays give light when donor and acceptor beads are brought close together.

Test [3] deals with GP2d cells. The experiment in a line: Cellular proliferation assay in GP2d cells (CellTiterGlo luminescent cell viability assay). The note with it: 72 hours treatment, CellTiter-Glo. How it is done:
Example 32: Cellular Proliferation Assay in GP2d Cells
The inhibitory effect of test compounds on cellular proliferation was determined using CellTiterGlo® luminescent cell viability assay (Promega) following manufacturer's instruction.
GP2d cells (ECACC #95090715) were cultured in DMEM medium supplemented with 10% fetal bovine serum, 10 U/ml penicillin and 10 ug/ml streptomycin. Cells were plated in 96-well plates at a density of 2000 cells/well and allowed attach for […]. Then the cells were treated with various concentrations of test compounds for 72 hours. CellTiter-Glo® Reagent was added to wells and incubated for 10 minutes at room temperature. The plates were read on GloMax® 96 Microplate Luminometer or compatible microplate readers. The percentage of cellular viability was calculated as: […]
(In general: In ATP-based viability assays light output follows the ATP content of the culture.)

As usually defined, the IC50 is the point on the concentration scale where inhibition reaches its midpoint. Consider `Oc1cc(-c2ncc3c(N4C[C@H]5CC[C@@H](C4)N5)nc(OC[C@@]45CCCN4C[C@H](F)C5)nc3c2F)c2c3c(ccc2c1)CCC3` [Example 2, 9-(4-((1R,5S)-3,8-diazabicyclo[3.2.1]octan-3-yl)-8-fluoro-2-(((2R,7aS)-2-fluorotetrahydro-1H-pyrrolizin-7a(5H)-yl)methoxy)pyrido[4,3-d]pyrimidin-7-yl)-2,3-dihydro-1H-cyclopenta[a]naphthalen-7-ol], for which the IC50 turned out to be 0.011 µM in test [1], 0.078 µM in test [2] and 0.13 µM in test [3].
Consider `Oc1cc(-c2ncc3c(N4C[C@H]5CC[C@@H](C4)N5)nc(OC[C@@]45CCCN4C[C@H](F)C5)nc3c2F)c2c(ccc3ccoc32)c1` [Example 1, 9-(4-((1R,5S)-3,8-diazabicyclo[3.2.1]octan-3-yl)-8-fluoro-2-(((2R,7aS)-2-fluorotetrahydro-1H-pyrrolizin-7a(5H)-yl)methoxy)pyrido[4,3-d]pyrimidin-7-yl)naphtho[1,2-b]furan-7-ol], for which the IC50 came to 0.107 µM in test [1], 0.408 µM in test [2] and 0.68 µM in test [3].
Consider `C[C@@H](COc1nc(N2C[C@H]3CC[C@@H](C2)N3)c2cnc(-c3cc(O)cc4ccc5c(c34)CCC5)c(F)c2n1)CN1C2CCC1COC2` [Example 12, 9-(2-((2R)-3-(3-oxa-8-azabicyclo[3.2.1]octan-8-yl)-2-methylpropoxy)-4-((1R,5S)-3,8-diazabicyclo[3.2.1]octan-3-yl)-8-fluoropyrido[4,3-d]pyrimidin-7-yl)-2,3-dihydro-1H-cyclopenta[a]naphthalen-7-ol], for which the IC50 came out at 0.017 µM in test [1] and 0.0484 µM in test [3].
For `C[C@@H]1COCCN1CC1(COc2nc(N3C[C@H]4CC[C@@H](C3)N4)c3ccc(-c4cc(O)cc5ccc6c(c45)CCC6)c(F)c3n2)CC1` [Example 25, 9-(4-((1R,5S)-3,8-diazabicyclo[3.2.1]octan-3-yl)-8-fluoro-2-((1-(((R)-3-methylmorpholino)methyl)cyclopropyl)methoxy)quinazolin-7-yl)-2,3-dihydro-1H-cyclopenta[a]naphthalen-7-ol], in that order: 0.018 µM and 0.303 µM.
On to `OCC1Cc2ccc3cc(O)cc(-c4ncc5c(N6C[C@H]7CC[C@@H](C6)N7)nc(OC[C@@]67CCCN6C[C@H](F)C7)nc5c4F)c3c2C1` (stereo partly drawn) [Example 18, 9-(4-((1R,5S)-3,8-diazabicyclo[3.2.1]octan-3-yl)-8-fluoro-2-(((2R,7aS)-2-fluorotetrahydro-1H-pyrrolizin-7a(5H)-yl)methoxy)pyrido[4,3-d]pyrimidin-7-yl)-2-(hydroxymethyl)-2,3-dihydro-1H-cyclopenta[a]naphthalen-7-ol], for which the IC50 is 0.24 µM in test [1] and 17 µM in test [3].
For `Oc1cc(-c2c(F)cc3c(N4C[C@H]5CC[C@@H](C4)N5)nc(OCC4(CN5CCOCC5)CC4)nc3c2F)c2c3c(ccc2c1)CCC3` [Example 29, 9-(4-((1R,5S)-3,8-diazabicyclo[3.2.1]octan-3-yl)-6,8-difluoro-2-((1-(morpholinomethyl)cyclopropyl)methoxy)quinazolin-7-yl)-2,3-dihydro-1H-cyclopenta[a]naphthalen-7-ol], in that order: 0.044 µM and 0.273 µM.
For `Oc1cc(-c2ncc3c(N4C[C@H]5CC[C@@H](C4)N5)nc(OC[C@@]45CCCN4C[C@H](F)C5)nc3c2F)c2c3c(ccc2c1)OCC3` [Example 6, 9-(4-((1R,5S)-3,8-diazabicyclo[3.2.1]octan-3-yl)-8-fluoro-2-(((2R,7aS)-2-fluorotetrahydro-1H-pyrrolizin-7a(5H)-yl)methoxy)pyrido[4,3-d]pyrimidin-7-yl)-1,2-dihydronaphtho[2,1-b]furan-7-ol], in that order: 0.588 µM and 9.29 µM.
For the compound `Oc1cc(-c2ncc3c(N4C[C@H]5CC[C@@H](C4)N5)nc(OCCCN4C5CCC4COC5)nc3c2F)c2c3c(ccc2c1)CCC3` [Example 10, 9-(2-(3-(3-oxa-8-azabicyclo[3.2.1]octan-8-yl)propoxy)-4-((1R,5S)-3,8-diazabicyclo[3.2.1]octan-3-yl)-8-fluoropyrido[4,3-d]pyrimidin-7-yl)-2,3-dihydro-1H-cyclopenta[a]naphthalen-7-ol], the IC50 in test [1] was determined as 0.205 µM; in test [3], 0.261 µM.
The corresponding values for `Oc1cc(-c2ccc3c(N4C[C@H]5CC[C@@H](C4)N5)nc(OCC4(CN5CC6COCC6C5)CC4)nc3c2F)c2c3c(ccc2c1)CCC3` (stereo partly drawn) [Example 24, 9-(4-((1R,5S)-3,8-diazabicyclo[3.2.1]octan-3-yl)-8-fluoro-2-((1-((tetrahydro-1H-furo[3,4-c]pyrrol-5 (3H)-yl)methyl)cyclopropyl)methoxy)quinazolin-7-yl)-2,3-dihydro-1H-cyclopenta[a]naphthalen-7-ol] are 0.024 µM and 0.12 µM.
Consider `O=C1CCc2ccc3cc(O)cc(-c4ncc5c(N6C[C@H]7CC[C@@H](C6)N7)nc(OC[C@@]67CCCN6C[C@H](F)C7)nc5c4F)c3c21` [Example 17, 9-(4-((1R,5S)-3,8-diazabicyclo[3.2.1]octan-3-yl)-8-fluoro-2-(((2R,7aS)-2-fluorotetrahydro-1H-pyrrolizin-7a(5H)-yl)methoxy)pyrido[4,3-d]pyrimidin-7-yl)-7-hydroxy-2,3-dihydro-1H-cyclopenta[a]naphthalen-1-one], for which the IC50 came out at 0.272 µM in test [1] and 16 µM in test [3].
The corresponding values for `Oc1cc(-c2ncc3c(N4C[C@H]5CC[C@@H](C4)N5)nc(OC[C@@]45CCCN4C[C@H](F)C5)nc3c2F)c2c(c1)c(Cl)c1n2CCC1` [Example 20, 5-(4-((1R,5S)-3,8-diazabicyclo[3.2.1]octan-3-yl)-8-fluoro-2-(((2R,7aS)-2-fluorotetrahydro-1H-pyrrolizin-7a(5H)-yl)methoxy)pyrido[4,3-d]pyrimidin-7-yl)-9-chloro-2,3-dihydro-1H-pyrrolo[1,2-a]indol-7-ol] are 0.226 µM and 2.41 µM.
The corresponding values for `Oc1cc(-c2ncc3c(N4C[C@H]5CC[C@@H](C4)N5)nc(OC[C@@]45CCCN4C[C@H](F)C5)nc3c2F)c2c3c(ccc2c1)CCCC3` [Example 16, 4-(4-((1R,5S)-3,8-diazabicyclo[3.2.1]octan-3-yl)-8-fluoro-2-(((2R,7aS)-2-fluorotetrahydro-1H-pyrrolizin-7a(5H)-yl)methoxy)pyrido[4,3-d]pyrimidin-7-yl)-5,6,7,8-tetrahydrophenanthren-2-ol] are 0.005 µM and 0.849 µM.
The corresponding values for `Oc1cc(-c2ncc3c(N4C[C@H]5CC[C@@H](C4)N5)nc(OCC4(CN5C6CCC5COC6)CC4)nc3c2F)c2c3c(ccc2c1)CCC3` [Example 23, 9-(2-((1-((3-oxa-8-azabicyclo[3.2.1]octan-8-yl)methyl)cyclopropyl)methoxy)-4-((1R,5S)-3,8-diazabicyclo[3.2.1]octan-3-yl)-8-fluoropyrido[4,3-d]pyrimidin-7-yl)-2,3-dihydro-1H-cyclopenta[a]naphthalen-7-ol] are 0.033 µM and 0.908 µM.
For the compound `Fc1c(-c2cccc3ccc4occc4c23)ncc2c(N3C[C@H]4CC[C@@H](C3)N4)nc(OC[C@@]34CCCN3C[C@H](F)C4)nc12` [Example 4, 4-((1R,5S)-3,8-diazabicyclo[3.2.1]octan-3-yl)-8-fluoro-2-(((2R,7aS)-2-fluorotetrahydro-1H-pyrrolizin-7a(5H)-yl)methoxy)-7-(naphtho[2,1-b]furan-9-yl)pyrido[4,3-d]pyrimidine], the figures for the IC50 in test [1] and in test [3] were 4.9 µM and 4.75 µM, respectively.
